This note sets out measurements from paper PMC8443589, “Modelling human liver fibrosis in the context of non-alcoholic steatohepatitis using a microphysiological system” (Communications Biology, 2021).

This experiment has as its system liver MPS NASH model + TGFβ (PHH, KC and HSC co-cultures, high fat). Briefly: Quantitative confocal imaging of collagen-1 and α-SMA in liver MPS NASH model with TGFβ (Fig 6c). Format: cell-based, human. The conditions noted are these: for Collagen 1 - fluroscence intensity / aSMA - fluroscence intensity: NASH + TGF, individual replicates; for reduction in collagen-1 deposition / reduction in α-SMA expression: NASH + TGFβ, highest concentrations. From the text: The systems biology approach identified TGFβ to be a key driver in creating a more advanced NASH phenotype in the MPS model, with enhanced fibrotic markers and reduced liver function. […] Therefore, we explored how effective pharmacological intervention would be for NASH microtissues with high NPC numbers supplemented with TGFβ and exposed them to varying concentrations of OCA and ELF QD as previously described (Supp. Fig. 6a). […] OCA had the greatest effect on IL-1Rα whereas ELF had the greatest effect on MCP-1 reflecting the fact that while both candidate drugs have anti-inflammatory properties, but their mechanisms of action are different. […] Finally, we used our quantitative fibrosis imaging assay to assess the effect of each candidate drug on collagen-1 deposition and α-SMA expression (Fig. 6c). […] Both candidate drugs caused a significant reduction in collagen-1 deposition and α-SMA expression, with the highest concentrations of OCA and ELF causing an 80% reduction in α-SMA expression and a 75% reduction in collagen-1 deposition (Fig. 6c).
Fig. 6 Using enhanced liver MPS NASH model with TGFβ, Obeticholic acid and Elafibranor modulate disease phenotype to a greater extent than in standard NASH model. PHH, KC and HSC co-cultures were cultured in the MPS platform under high-fat conditions and dosed with varying concentrations of Obeticholic acid (OCA) and Elafibranor (ELF) QD or vehicle control for 10 days, following an initial 4-day pre-culture phase. Throughout the compound dosing period TGFβ was also dosed onto all microtissues (NASH only vehicle control samples were also included in the study for comparison, which were not treated with TGFβ or dosed with any compound). a The secreted cytokine profile from treated liver microtissues was compared to determine the effects of each compound on the inflammatory profile of the liver with samples analysed at day 8 and 14 of the culture. Data were normalised by Z-transformation to allow comparison of all analytes (white = undetected). b The expression of fibrosis-associated biomarkers was analysed on day 14 media samples and compared to NASH + TGFβ control samples. c Liver microtissues were stained for collagen-type I, α-SMA, nuclei (DAPI), phalloidin (green) and imaged by confocal microscopy. Representative images are shown and scale bars 200 µm. Staining of microtissues was quantified by measuring total fluorescence intensity throughout individual microtissues, each data point represents an average of all microtissues per MPS culture (min 8, max 20). All datapoints shown with error bars highlighting means ± SD, all data from a minimum of three independent cultures: all comparisons were made to NASH + TGFβ control samples.
To visualise fibrosis proteins in the liver microtissues, scaffolds were fixed for 15 min in 4% paraformaldehyde following culture in the MPS platform. They were permeabilized with 0.1% Triton-X and blocked with 2% BSA before staining overnight at 4 °C with antibodies against alpha SMA (Abcam, UK - ab7817) and collagen 1 (Rockland, USA—600 401 103 0.5). Scaffolds were then stained with fluorescently conjugated secondary antibodies (Alexa-Fluor 555 goat anti-rabbit #A21429; Alexa-Fluor 647 donkey anti-rabbit #A31573; Alexa-Fluor 555 goat anti-mouse #A21424; Alexa-Fluor 647 goat anti-mouse #A21235 (Thermofisher, UK) along with Phalloidin 488 (Thermofisher, UK) and Hoechst 33342 (Invitrogen) for 1.5 h at room temperature. Scaffolds were washed three times with PBS and mounted onto glass microscope slides with anti-fade mounting medium. Confocal fluorescent images of the stained scaffolds were captured using a Cell Voyager 7000 (CV700, Yokogawa Inc.) automated confocal microscope. Image acquisition was controlled using the SearchFirst functionality of the Wako Software suite (Fujifilm Wako Automation). A workflow was designed to automatically locate and acquire images of each scaffold in a consistent and unbiased manner (Supp. Fig. 1). […]

“And” between values parts separate entries of the source, which are not always exact repeats. Equal entries are not always repeated.

Regarding `CSc1ccc(C(=O)/C=C/c2cc(C)c(OC(C)(C)C(=O)O)c(C)c2)cc1` [Elafibranor], the “reduction in collagen-1 deposition” value came out at 75% and the “reduction in α-SMA expression” value was found to be 80%. Besides, under “1.3 uM, listed as ELF”, the “Collagen 1 - fluroscence intensity” value is 1733.28 and 2118.75 and 2931.26; the “aSMA - fluroscence intensity” value is 730.875 and 499.771 and 815.833. In addition, where the note is “13 uM, listed as ELF”, the “Collagen 1 - fluroscence intensity” value is 1948.99 and 2325.43; the “aSMA - fluroscence intensity” value was 408.818 and 783.286. Where the note is “65 uM, listed as ELF”, the “Collagen 1 - fluroscence intensity” value was 815.347 and 1263.35 and 1286.58; the “aSMA - fluroscence intensity” value was 106.491 and 171.359 and 165.195.

In the case of `CC[C@H]1[C@@H](O)[C@@H]2[C@H](CC[C@]3(C)[C@@H]([C@H](C)CCC(=O)O)CC[C@@H]23)[C@@]2(C)CC[C@@H](O)C[C@@H]12` [Obeticholic acid], the “reduction in collagen-1 deposition” value was 75% and the “reduction in α-SMA expression” value is recorded as 80%. Under “0.25 uM, listed as OCA”, the “Collagen 1 - fluroscence intensity” value is 1951.11 and 3372.52 and 2271.93; the “aSMA - fluroscence intensity” value was 697.585 and 1188.53 and 484.974. Also, under “5 uM, listed as OCA”, the “Collagen 1 - fluroscence intensity” value is 1987.74 and 1316.74 and 1611.55; the “aSMA - fluroscence intensity” value is 480.346 and 350.765 and 416.589. In addition, where the note is “12.5 uM, listed as OCA”, the “Collagen 1 - fluroscence intensity” value was 1674.28 and 412.802 and 1126.69; the “aSMA - fluroscence intensity” value was 287.458 and 39.7737 and 104.277.

As to “TGFβ: recombinant TGF beta 1 protein (Abcam), 1 ng/ml cue”, where the note is “NASH microtissues, high NPC”, the “collagen-1 and α-SMA signal, fat and TGFβ compared to just fat alone” value is reported as “significant increase”.
